In patent US20220370604A1, “PEPTIDE VACCINE FOR VIRUS INFECTION” (Vacino Biotech Co., Ltd., priority 2021, published 2022):
Ends that are not written are not given here.

What was measured:
[1] = test system: CD8^+ T cells in human PBMCs (HLA-A201^+); assay: MHC class I tetramer assay; format: cell-based; conditions: human PBMC (HLA-A201^+), 30 nM tetramer, 20 minutes; FIG. 3
Experimental: Human PBMCs were treated with MHC class I tetramers binding with Peptide 1 (SEQ ID NO: 1) or Peptide 12 (SEQ ID NO: 12) for 20 minutes, co-stained with anti-CD8 antibodies, and then analyzed with a flow cytometer. Results are presented as mean with error bars representing standard error (n=3). *p<0.05.
MHC class I tetramer assay. […] Then, 50 µL of the obtained folded monomer were mixed with the equivalent of 2.1 μL of a 0.2 mg/mL streptavidin-fluorophore and incubated in the dark at 4° C. for at least 1 hour to tetramerized the monomer. The tetramer was diluted to 30 nM in FACS buffer (PBS with 1% v/v BSA and 0.1% v/v NaN3) for staining of human T cells.
Next, around 1-2×10^5 human peripheral blood mononuclear cells (PBMCs, HLA-A201^+) ([…] Technologies Inc, Vancouver, British Columbia, Canada) in FACS buffer were seeded onto a 96-well microplate. The cells were centrifuged at 700×g for 3 minutes, and the supernatant was removed. The cells were resuspended with 40 μL of the diluted tetramer and incubated in the dark at room temperature (RT) for 20 minutes. The cells were washed once in cold FACS buffer and centrifuged at 700×g for 3 minutes. […] The cells were washed twice in cold FACS buffer, resuspended in FACS buffer, and analyzed in a flow cytometer (BD LSRFortessa™X20, Franklin Lakes, N.J., U.S.).

[2] = Immunization of mice, total IgG ELISA; format: in vivo, BALB/c mice; conditions: for total IgG antibodies: BALB/c mice, ***p<0.001
Experimental: Immunization of mice. To determine the immunogenicity of the antigen peptides of the present invention, Peptide 1 (SEQ ID NO: 1) of the present invention were used as an example for mice model. Ten (10) female BALB/c mice (7-9 weeks old) supplied by Envigo (Indianapolis, Ind., USA) were intramuscularly injected with 3 shots of 45 μg Peptide 1 (SEQ ID NO: 1) at 2 weeks apart (on Days 0, 14, and 28). Serum was collected before the day of each immunization (on Days−1, 13, and 27). Terminal blood collection was performed on Day 41. Isolated serum was stored at −80° C. until serological analysis. Serum samples collected one day prior to the first injection (on Day−1, pre-dose group) and serum samples collected 2 weeks after the third injection (on Day 41, post-dose group) were used for anti-spike IgG ELISA assay.
Total IgG ELISA. IgG (Total) Mouse Uncoated ELISA kit (Cat. No. 88-50400, Thermo Fisher Scientific, MA, USA) was used for total IgG ELISA according to manufacturer's instruction. Briefly, Nunc™ MaxiSorp™ 9018 ELISA plate was coated with 100 μL/well of capture antibody in Coating Buffer and incubated overnight at 4° C. The plate was washed twice with 400 μL/well Wash Buffer. After the wells were blocked with 250 μL of Blocking Buffer and incubated at room temperature for 2 hours, the plate was washed twice. The standards were serially diluted with Assay Buffer A at 2-fold to make the standard curve. Then, 100 μL/well of Assay Buffer A were added to the blank wells, and 90 μL/well of Assay Buffer A were added to the sample wells. Serum samples were diluted at least 10,000-fold in Assay Buffer A, and then 10 μL/well of the prediluted serum samples were added to the appropriate wells. Fifty (50) μL/well of diluted Detection Antibody were added to all wells. Then, the plate was covered and incubated at room temperature for 2 hours, and washed four times after the incubation. […] After that, 100 μL of Stop Solution were added to each well, and the plate was read at OD 450 nm with a microplate reader. […]

[3] = test system: Human SARS-CoV-2 Spike (trimer); assay: Immunization of mice, anti-spike IgG ELISA; format: in vivo; conditions: Day 41 vs Day -1, BALB/c mice
[4] = biological target: HLA-A201 (Homo sapiens, UniProt P04439, D140Y/D185E/D98H/E176V/E277Q/G131W/G231S/I119V/I121R/I166T/I218V/N151K/N90K/P208A/P217A/Q86G/Q94H/R138H/R169H); assay: MHC-peptide binding assay (MHC class I refolding assay, easYmer)
Experimental: Different concentrations of peptides were incubated with β2-microglobulin light chain subunit and biotin-labeled recombinant HLA-A201 to form peptide-HLA complexes. The peptide-HLA complexes were then captured by streptavidin-coated beads and detected by anti-human β2-microglobulin antibody on flow cytometry. Each data point represents the mean fluorescence intensity corresponding to the number of the formed peptide-HLA complex, and the error bars represent standard deviation (n=2).
Each bar represents the mean fluorescence intensity corresponding to the number of the formed peptide-HLA complex, and the error bars represent standard deviation (n=2).
MHC-peptide binding assay. […] MHC class I refolding assay (easYmer, immunAware Aps, Copenhagen, Denmark) was preformed according to manufacturer's instruction. […] The biotin-labeled peptide-HLA complex was then captured by streptavidin-coated beads and detected by PE-conjugated anti-human β2-microglobulin on flow cytometry. […] No peptide was used in the negative control.

[5] = test system: CD4^+ T cells in human PBMCs (HLA-A201^+); assay: Intracellular cytokine staining and multiparameter flow cytometry; format: cell-based; conditions: Day 12
Experimental: Human PBMCs were treated with Peptide 1 (SEQ ID NO: 1) at the concentrations of 0.4, 2, 10, 50, 250 nM for 12 days and then subject to intracellular cytokine staining and multiparameter flow cytometry.
Human PBMCs were treated with Peptide 12 (SEQ ID NO: 12) at the concentrations of 0.4, 2, 10, 50, 250 nM for 12 days and then subject to intracellular cytokine staining and multiparameter flow cytometry.
Intracellular cytokine staining and multiparameter flow cytometry. Around 1-2×10^5 human PBMCs (HLA-A201^+) ([…] Technologies Inc, Vancouver, British Columbia, Canada) were seeded onto 96-well microplate in X-VIVO 15 medium. […] The culture medium was refreshed every 5 days, and on the 12th day after treatment with the peptides, the cells were collected and stained with anti-CD4-PerCP-Cy5.5 conjugated, IFN-γ-FITC chrome conjugated, and IL4-PE chrome conjugated antibodies according to the manufacturer's instruction. After that, the cells were washed twice in cold FACS buffer, resuspended in FACS buffer, and analyzed in a flow cytometer ((BD LSRFortessa™X20, Franklin Lakes, N.J., U.S.).

| Sequence | antigen specific cytotoxic T cells (CTLs) detected by MHC class I tetramer staining [1] | total IgG antibodies ([2]; intramuscular, 45 μg, Days 0, 14, 28, FIG. 5A) | total IgG, course over administrations ([2]; intramuscular, 45 μg, sera on Days -1, 13, 27, 41, FIG. 5A) | total IgG antibodies ([2]; oral, 200 μg formulated with 1% (v/v) PLCL-PEG-PLCL, Day 41 vs Day -1, FIG. 7A) | anti-spike IgG antibodies ([3]; intramuscular, 45 μg, FIG. 5B, ***p<0.001) | anti-spike IgG antibodies ([3]; oral, 200 μg formulated with 1% (v/v) PLCL-PEG-PLCL, FIG. 7B, **p<0.01) | binding affinity for HLA-A201, times as high as that of CMVpp65495-503 (positive control) ([4]; 8.9 nM peptide, FIG. 1, mean fluorescence intensity of peptide-HLA complex) [times] | binding affinity for HLA-A201 compared with CMVpp65495-503 (positive control) ([4]; concentration of 3 nM and 8.9 nM, FIG. 1) | IL-4 secretion by T helper cells (CD4^+ cells) ([5]; 50 nM peptide) | IFN-γ secretion by T helper cells (CD4^+ cells) ([5]; 250 nM peptide) |
| --- | --- | --- | --- | --- | --- | --- | --- | --- | --- | --- |
| KLNSGDSKV [Peptide 1] | can be detected | induced total IgG antibodies | reaches to the plateau after second administration | induced total IgG antibodies | induced anti-spike IgG antibodies | induced anti-spike IgG antibodies | 1.8 | higher binding affinity for HLA-A201 than CMVpp65495-503 | higher level | higher level |
| KLNSGLSKV [Peptide 12] | can be detected |  |  |  |  |  |  |  |  |  |
